Assay results as given in patent EP0351784A2, “Therapeutic use of the isopropyl ester derivative of monosialoganglioside in nervous pathologies with an inflammatory component” (FIDIA S.p.A., priority 1988, dated 1990).

Columns and labels:
Sprague-Dawley rats = assay: acetic acid-induced peritonitis test (antiexudative activity); type: in vivo, rat; settings: for % inhibition: peritoneal exudate
Procedure: The study was conducted on Sprague-Dawley rats, weighing between 200 and 300 gr. An evaluation was made of the capacity of the isopropyl ester of GM₁ ganglioside (hereafter known as AGF₄₄) and GM₁ itself, to inhibit the formation of peritoneal exudate following intraperitoneal injection (10 ml/kg) of a 0.5% acetic acid solution. To study administration by oral, subcutaneous and intraperitoneal routes, AGF₄₄ and GM₁ (solubilized in 10 ml/kg of sterile saline physiological solution) and a comparison compound indomethacin were administered by the individual routes one hour before the injection of acetic acid. To study topical administration, one hour before i.p. injection of acetic acid, AGF₄₄ and GM₁ in the form of 0.1% aqueous gels and the comparison 5% Artrosilene gel (ketoprofen lysine salt) were applied to the right paws with a light massage for 30 seconds to ensure complete absorption of the gel. The control groups received saline physiological solution (10 ml/kg) and placebo gel (0.2 ml/rat), respectively. 30 minutes after exudate inducement the animals were sacrificed, samples were taken of the peritoneal exudate and the percentage of inhibition of the same in relation to control values was calculated.

male Sprague Dawley rats = assay: carrageenan-induced edema test in the paw (antiedematous activity); type: in vivo, rat; settings: for % inhibition: paw volume increase at 3rd hour
Procedure: The study was conducted on male Sprague Dawley rats, weighing about 160 ± 10 gr. An evaluation was made of the activity of the isopropyl ester of GM₁ ganglioside (AGF₄₄) and GM₁ in inhibiting the formation of edema following injection of a sterile aqueous solution of 1% carrageenan into the plantar aponeurosis of the right hand paw (0.1 ml/rat). To study administration by oral, subcutaneous and intraparitoneal routes, AGF₄₄ and GM₁ (solubilized in 10 ml/kg of sterile saline physiological solution) were compared to indomethacin as a comparison compound. For study of the oral route, each compound was administered by oral route one hour before injection of carrageenan. For study of the subcutaneous and intraperitoneal routes, each compound was administered 30 minutes before the same. To study topical administration, AGF₄₄ and GM₁ (as 0.1% aqueous gels) were compared to 5% Artrosilene gel (ketoprefene lysine salt). Each compound was applied locally to the right paw, and administration was effected twice, one hour before and immediately after injection of carrageenan, massaging lightly for 30 seconds to ensure complete absorption. The control groups received saline physiological solution (10 ml/kg) and placebo gel (0.2-0.4 ml/rat twice) respectively. Plethysmometric evaluation of the volume of the right paw was effected immediately before sub-plantar injection of carrageenan an 3 hours after the same. The antiedematous effect of the treatment was calculated by evaluating the average increase in paw volume at the 3rd hour (compared to time 0) based on control values.

[1] = intraperitoneal, 1 mg/kg, one hour before acetic acid
[2] = intraperitoneal, 2.5 mg/kg, one hour before acetic acid
[3] = oral, 1 mg/kg, one hour before i.p. 0.5% acetic acid (10 ml/kg)
[4] = oral, 2.5 mg/kg, one hour before acetic acid
[5] = subcutaneous, 1 mg/kg, one hour before acetic acid
[6] = subcutaneous, 2.5 mg/kg, one hour before acetic acid
[7] = topical to right paw, 0.1% gel 0.2 ml/rat, 1.4 mg/kg, one hour before acetic acid
[8] = intraperitoneal, 2 mg/kg, 30 minutes before carrageenan
[9] = intraperitoneal, 5 mg/kg, 30 minutes before carrageenan
[10] = oral, 2 mg/kg, one hour before carrageenan
[11] = oral, 5 mg/kg, one hour before carrageenan
[12] = subcutaneous, 2 mg/kg, 30 minutes before carrageenan
[13] = subcutaneous, 5 mg/kg, 30 minutes before carrageenan
[14] = intraperitoneal, 1 mg/kg, 30 minutes before carrageenan
[15] = oral, 1 mg/kg, one hour before 1% carrageenan
[16] = subcutaneous, 1 mg/kg, 30 minutes before carrageenan

Row | Compound | % inhibition (Sprague-Dawley rats; [1]) [%] | % inhibition (Sprague-Dawley rats; [2]) [%] | % inhibition (Sprague-Dawley rats; [3]) [%] | % inhibition (Sprague-Dawley rats; [4]) [%] | % inhibition (Sprague-Dawley rats; [5]) [%] | % inhibition (Sprague-Dawley rats; [6]) [%] | % inhibition (Sprague-Dawley rats; [7]) [%] | % inhibition (male Sprague Dawley rats; [8]) [%] | % inhibition (male Sprague Dawley rats; [9]) [%] | % inhibition (male Sprague Dawley rats; [10]) [%] | % inhibition (male Sprague Dawley rats; [11]) [%] | % inhibition (male Sprague Dawley rats; [12]) [%] | % inhibition (male Sprague Dawley rats; [13]) [%] | % inhibition (male Sprague Dawley rats; [14]) [%] | % inhibition (male Sprague Dawley rats; [15]) [%] | % inhibition (male Sprague Dawley rats; [16]) [%] | other results
1 | GM₁ ganglioside [GM1, reference compound] | 47 | 51 | 56 | 63 | 44 | 52 | 30 | 20 | 30 | 20 | 32 | 19 | 31 | – | – | – | % inhibition (male Sprague Dawley rats; topical, 0.1% gel 0.2 ml/rat/twice, dose in mg/kg not given): 20%
2 | COc1ccc2c(c1)c(CC(=O)O)c(C)n2C(=O)c1ccc(Cl)cc1 [Indomethacin, indomethacin, reference compound] | 70 | – | 74 | 90 | 64 | 84 | – | – | 67 | – | 67 | – | 60 | 23 | 22 | 30 | –
3 | isopropyl ester of GM₁ ganglioside [GM1 isopropyl ester] | 55 | 60 | 70 | 72 | 47 | 61 | 43 | 32 | 57 | 32 | 60 | 30 | 50 | 18 | 20 | 25 | Peritoneal exudate inhibition (Sprague-Dawley rats; after oral administration): 70-80%; antiexudative efficacy (Sprague-Dawley rats; at doses of less than 0.1 mg/kg (in the order of 0.1 mg/kg)): efficacious; antiexudative activity (Sprague-Dawley rats; at doses of over 10 mg/kg): the activity decreases; antiexudative activity compared with indomethacin (Sprague-Dawley rats; oral, at 1 mg/kg): comparable to that of indomethacin; % inhibition (Sprague-Dawley rats; intraperitoneal, 5 mg/kg, one hour before acetic acid): 64%; % inhibition (Sprague-Dawley rats; oral, 5 mg/kg, one hour before acetic acid): 77%; % inhibition (Sprague-Dawley rats; subcutaneous, 5 mg/kg, one hour before acetic acid): 70%; antiinflammatory activity (male Sprague Dawley rats; at doses of over 10 mg/kg): it diminishes at doses of over 10 mg/kg; Maximum efficacy (inhibition) (male Sprague Dawley rats; by oral route): 50-60%; % inhibition (male Sprague Dawley rats; topical, 0.1% gel 0.2 ml/rat/twice, 1.25 x 2 mg/kg): 32%; % inhibition (male Sprague Dawley rats; topical, 0.1% gel 0.4 ml/rat/twice, 2.5 x 2 mg/kg): 43%
